Test results as given in patent US7662382B2, “Inducible ligand for α1β1 integrin and uses” (Boys Town National Research Hospital, priority 2002, dated 2010).

Assays:
[1] = system: primary kidney endothelial cell cultures; assay: Binding of Alexa-568-conjugated α1β1 integrin to treated primary kidney endothelial cells; assay type: cell-based, mouse
Procedure: Primary endothelial cells were isolated from wild type mouse kidneys using anti-CD31 coated metallic beads. Cells were cultured in endothelial cell medium (DMEM/F12, 50 μg/ml Endothelial mitogen, 1% penicillin/streptomycin, 20 mM L-Glutamine, and 1 U/mL heparin prepared fresh not filtered) containing 20% FCS. Thirty-two wells of 5×10^4 cells/well in a 96 well plate coated with 1% gelatin in sterile PBS were set up. Cells were maintained in endothelial cell media with 20% FCS until cells reached confluence. Confluent cells were washed with HBSS, then covered with endothelial cell media without serum at 200 μL/well and kept in a humidified chamber at 37° C., 5% CO2. Twenty-four hours later fresh endothelial cell medium was added without serum and various concentrations of MCP-1 and H2O2 were added at 24 or 48 hours (hrs) prior to conducting the assay for cell binding to α1β1 integrin as shown in the following Table 1.

[2] = Pilot stability study with Alexa-conjugated integrin α1β1; settings: Alexa-conjugated integrin α1β1, data not shown
Procedure: In an attempt to provide a more definitive test for the function of α1β1 in monocyte efflux into diseased kidneys, 5 μg of purified α1β1 integrin was injected into the tail vein of Alport mice daily, starting one day before injection of labeled dextrans, and kidneys harvested three days following injection of dextrans. Pilot studies with Alexa-conjugated integrin α1β1 were conducted to assess the stability prior to the blocking experiments. […] If transendothelial migration of monocytes into the interstitial space is mediated, in part, through binding a ligand on endothelial cells, a decrease in labeled monocytes in Alport mice treated with α1β1 integrin compared to untreated age-matched Alport mice should be observed, since the purified integrin should occupy ligand, making less available for binding to monocytes.

[3] = target: T1, ligand for α1β1 integrin on endothelial cells (Collagen XIII) (Mus musculus, UniProt Q9R1N9); assay: Monocyte efflux into the interstitium of Alport kidneys after injection of purified α1β1 integrin (Alexa 568 dextran trafficking); assay type: in vivo; settings: Alport mice, 5 μg purified α1β1 integrin into tail vein daily from one day before labeled dextrans, kidneys three days after dextrans, vs untreated Alport mice
T1 construct: from tissue; host or cells: vascular endothelium of kidneys of living Alport (collagen IV α3 -/-) mice
T1 sequence (Q9R1N9 whole entry): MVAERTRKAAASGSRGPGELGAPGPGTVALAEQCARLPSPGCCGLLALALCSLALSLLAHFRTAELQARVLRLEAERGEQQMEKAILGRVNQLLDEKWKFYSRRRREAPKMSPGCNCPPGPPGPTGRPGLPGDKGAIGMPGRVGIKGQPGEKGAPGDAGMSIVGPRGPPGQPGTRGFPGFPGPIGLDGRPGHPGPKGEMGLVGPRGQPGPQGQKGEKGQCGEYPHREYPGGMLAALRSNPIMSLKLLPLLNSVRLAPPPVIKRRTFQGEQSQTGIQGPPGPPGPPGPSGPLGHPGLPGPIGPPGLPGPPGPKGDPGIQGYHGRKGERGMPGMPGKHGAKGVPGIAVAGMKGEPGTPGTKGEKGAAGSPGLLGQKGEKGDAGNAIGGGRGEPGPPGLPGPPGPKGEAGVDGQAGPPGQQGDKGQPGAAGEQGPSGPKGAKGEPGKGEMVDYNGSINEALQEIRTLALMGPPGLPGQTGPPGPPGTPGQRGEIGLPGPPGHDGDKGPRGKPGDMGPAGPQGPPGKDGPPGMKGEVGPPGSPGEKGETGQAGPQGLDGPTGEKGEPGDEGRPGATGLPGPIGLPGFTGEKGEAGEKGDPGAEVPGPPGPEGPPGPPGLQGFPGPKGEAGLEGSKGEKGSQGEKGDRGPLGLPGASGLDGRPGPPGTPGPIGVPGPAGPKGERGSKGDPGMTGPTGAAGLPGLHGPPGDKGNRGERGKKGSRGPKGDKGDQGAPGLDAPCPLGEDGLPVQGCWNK
Text: Male wild type 129SV and 129SVJ mice (4-12 weeks old) along with collagen IV α3 (−/−) (Alport: 5-8 weeks old) and collagen IV α3 (−/−)/integrin α1 (−/−) double knock out (DKO: 8-12 weeks old) mice were tail vein injected with […] of Alexa 568 labeled dextran reconstituted in 100 microliters (μL) Hanks Balanced Salt Solution (pH 7.2). Three days post injection animals were given a lethal injection of averitin (0.55 grams per kilogram (g/kg) body weight; ip) followed by cardiac perfusion with ice cold PBS. Kidneys were removed and immersed in increasing concentrations of ice cold sucrose (30% max) then embedded in Tissue Tek OCT mounting medium (Sakura Finetek USA, Inc., Torrence, Calif.) and stored at −80° C.
Fresh frozen tissue sections (4 μm) were fixed in 2% paraformaldehyde for 5 minutes and allowed to dry overnight at 4° C. followed by extended storage at −20° C. or immunohistochemical detection of monocytes using rat monoclonal α-CD11b (Cedar Lane laboratories, Hornby, Ontario) and Goat anti rat Alexa 488 (Molecular Probes, Inc. Eugene, Oreg.) antibodies at 1:100 and 1:200 dilutions respectively. Sections were cover slipped with vectorshield mounting medium (Vector Corp. Burlingme, Calif.). […] Green fluorescence alone as well as co-localized dual fluorescence were measured using Image Pro Plus software (Media Cybernetics, Inc. Silver Spring, Md.). […]

[4] = system: renal cortical vascular endothelium; assay: Binding of Alexa 568-labeled purified α1β1 integrin to kidney vascular endothelium after tail vein injection; assay type: in vivo, mouse; settings: 24 hours after tail vein injection
Text: If such a direct role exists, there must be a ligand for α1β1 integrin on the renal cortical vascular endothelium of Alport mice that is absent on normal mice. To test for the presence of such a ligand, purified α1β1 integrin (purchased from Chemicon, Temecula, Calif.) was labeled with Alexa 568, and the labeled integrin injected into the tail vein of normal, Alport, and DKO mice. Twenty-four hours following the injection, kidneys were harvested, and cryosections examined. […] Since monocytes phagocytize labeled dextrans, what is interpreted as integrin might be phagocytized integrin in monocytes.

Compound: OO [hydrogen peroxide, reference compound]
- binding of Alexa-conjugated α1β1 integrin to cultured primary kidney endothelial cells ([1]; cells treated with hydrogen peroxide (24 or 48 hrs), concentration and time-dependent): promotes the binding

Compound: MCP-1: recombinant monocyte chemo-attractive protein-1, a chemokine
- adhesion of α1β1 integrin to endothelial cells ([1]; cells pre-treated with recombinant MCP-1 (24 or 48 hrs) vs untreated cells, time and dose dependent): significantly elevated adhesion

Compound: purified α1β1 integrin: purified human α1β1 integrin purchased from Chemicon, Temecula, Calif.; also used labeled with Alexa 568
- stability of the purified integrin [2]: at least 72 hours
- monocyte efflux (Alexa-labeled CD11b-positive monocytes in the interstitium) [3]: a trend for a reduction in monocyte efflux
- labeling of kidney cryosections by Alexa 568-labeled integrin ([4]; Alport mice): strong labeling in the vascular endothelium
- labeling of kidney cryosections by Alexa 568-labeled integrin ([4]; normal (control) mice): absence of label
